# Assay results published in US20230052189A1, “TREATMENT OF PRIMARY BILIARY CHOLANGITIS WITH ELAFIBRANOR” (Genfit, priority 2020, published 2023).
# How the values were obtained:
# subjects with PBC [1] = assay: Phase 2 double-blind placebo-controlled study: change from baseline in serum ALP; assay type: in vivo, human; settings: for treatment effect estimate vs placebo, relative change in serum ALP (supportive analysis): ANCOVA with baseline ALP as covariate; for treatment effect estimate vs placebo, relative change in serum ALP (primary analysis): non-parametric randomization-based ANCOVA with baseline ALP as covariate, p<0.001; for mean relative change (%) from baseline to Endpoint in serum ALP: 12-week treatment, placebo 3.2%
# Experimental: (§1) The study was a Phase 2, double-blind, randomized, parallel group, placebo-controlled study, designed to evaluate the efficacy and safety of elafibranor at doses of 80 mg or 120 mg daily vs placebo in an adult PBC population. This study projected to randomize approximately 45 subjects to 3 treatment groups in a 1:1:1 ratio (elafibranor 80 mg, elafibranor 120 mg, or placebo).
# (§2) Subject participation was planned to be a maximum of 20 weeks. The study was comprised of 3 periods: a Screening Period, a Treatment Period, and a Follow-up Period. The Screening Period (Week −4 to Week −1) preceded the 12-week double-blind Treatment Period.
# A decrease in ALP levels is recognized as a particularly relevant surrogate marker for the treatment of PBC. Consequently the primary endpoint of the study is to evaluate the efficacy of elafibranor 80 mg or 120 mg with respect to relative change from baseline in serum ALP levels compared to placebo.
# subjects with PBC [2] = assay: Phase 2 study: pruritus (itching) domain of PBC-40 quality of life questionnaire; assay type: in vivo, human; settings: for median absolute change from baseline to Endpoint in the pruritus/itching domain of PBC-40: placebo 0.0; for median relative change from baseline to Endpoint in the pruritus/itching domain of PBC-40: placebo 0%; for mean absolute change from baseline to Endpoint in the pruritus (itching) domain of PBC-40: placebo 2.1
# Experimental: as §1, §2
# subjects with PBC [3] = assay: Phase 2 study: change from baseline in pruritus visual analogue scale (VAS); assay type: in vivo, human; settings: for median relative change from baseline to Endpoint in the pruritus VAS: placebo −7.1%
# Experimental: as §1, §2
# Considering that pruritus is a preeminent adverse event in subjects with PBC, assessment of pruritus was also considered. More specifically, the change from baseline in pruritus (through 5D-itch scale (measuring the degree, duration, direction [improvement or worsening], disability [effect on daily activities], and distribution of itching) and visual analogue scale for pruritus (VAS).
# The 5D-itch scale is a reliable, multidimensional measure of itching that has been validated in patients with chronic pruritus to detect changes over time (Elman S, et al., The 5-D itch scale: a new measure of pruritus. Br J Dermatol. 2010; 162(3):587-593.). The VAS is a reliable and validated method of pruritus assessment (Reich A, et al., Visual analogue scale: evaluation of the instrument for the assessment of pruritus. Acta Derm Venereol.2012; 92(5):497-501).
# Pruritus scoring values and absolute changes from baseline are provided for each domain of the 5D-itch scale (duration, degree, direction, disability, and distribution) and for the VAS by subject and by visit; baseline and Endpoint values are flagged in this listing; total scores at each visit are also summarized in this listing.
# subjects with PBC [4] = assay: Phase 2 study: tolerability and safety (TEAEs, pruritus worsening); assay type: in vivo, human; settings: for percentage of subjects reporting TEAEs (Treatment-Emergent Adverse Events): placebo 80.0%
# Experimental: as §1, §2
# The tolerability and safety of once-per-day oral administration of elafibranor in 80-mg and 120-mg doses in subjects with PBC was assessed as follows: • Physical examination • Vital signs • Medical history • ECG • Hematological parameters • Liver markers • Other biochemical safety parameters
# patients with PBC = settings: Nevens et al. 2016; cited from earlier work
# [5] = 80 mg and 120 mg treatment groups
smiles,measurement,setting,value
"CSc1ccc(C(=O)C=Cc2cc(C)c(OC(C)(C)C(=O)O)c(C)c2)cc1 [elafibranor, 2-(2,6-dimethyl-4-{3-[4-(methylsulfanyl)phenyl]-3-oxopropen-1-yl}phenoxy)-2-methylpropanoic acid]",change from baseline in serum ALP vs placebo at Endpoint (significance),subjects with PBC [1]; [5],statistically significantly different from placebo
same,mean ALP values from baseline through Week 12 (trend),"subjects with PBC [1]; 80 mg and 120 mg treatment groups, 12 week study",declining mean ALP values
same,"treatment effect estimate vs placebo, relative change in serum ALP (supportive analysis)","subjects with PBC [1]; 80 mg, 95% CI [−63.3, −39.5]",−51.4%
same,"treatment effect estimate vs placebo, relative change in serum ALP (primary analysis)","subjects with PBC [1]; 80 mg, 95% CI [−62.5, −41.5]",−52.0%
same,"treatment effect estimate vs placebo, relative change in serum ALP (supportive analysis)","subjects with PBC [1]; 120 mg, 95% CI [−55.8, −31.9]",−43.9%
same,"treatment effect estimate vs placebo, relative change in serum ALP (primary analysis)","subjects with PBC [1]; 120 mg, 95% CI [−55.7, −32.1]",−43.9%
same,mean relative change (%) from baseline to Endpoint in serum ALP,subjects with PBC [1]; elafibranor 80 mg daily oral,−48.3%
same,mean relative change (%) from baseline to Endpoint in serum ALP,subjects with PBC [1]; elafibranor 120 mg daily oral,−40.6%
same,median absolute change from baseline to Endpoint in the pruritus/itching domain of PBC-40,subjects with PBC [2]; 80 mg,−1.0
same,median relative change from baseline to Endpoint in the pruritus/itching domain of PBC-40,subjects with PBC [2]; 80 mg,−25.0%
same,mean absolute change from baseline to Endpoint in the pruritus (itching) domain of PBC-40,subjects with PBC [2]; 80 mg,−0.9
same,median absolute change from baseline to Endpoint in the pruritus/itching domain of PBC-40,subjects with PBC [2]; 120 mg,−1.0
same,median relative change from baseline to Endpoint in the pruritus/itching domain of PBC-40,subjects with PBC [2]; 120 mg,−20.8%
same,mean absolute change from baseline to Endpoint in the pruritus (itching) domain of PBC-40,subjects with PBC [2]; 120 mg,−4.1
same,median pruritus VAS from baseline through Week 12 (trend),subjects with PBC [3]; [5],declining median VAS as early as Week 2
same,median relative change from baseline to Endpoint in the pruritus VAS,subjects with PBC [3]; 80 mg,−23.7%
same,median relative change from baseline to Endpoint in the pruritus VAS,subjects with PBC [3]; 120 mg,−49.5%
same,safety and tolerability in patients,subjects with PBC [4]; 80 mg and 120 mg,safe and well-tolerated
same,worsening of pruritus,subjects with PBC [4]; 80 mg and 120 mg,no worsening of pruritus
same,percentage of subjects reporting TEAEs (Treatment-Emergent Adverse Events),subjects with PBC [4]; 80 mg,80.0%
same,percentage of subjects reporting TEAEs (Treatment-Emergent Adverse Events),subjects with PBC [4]; 120 mg,86.7%
"CC[C@H]1[C@@H](O)[C@@H]2[C@H](CC[C@]3(C)[C@@H]([C@H](C)CCC(=O)O)CC[C@@H]23)[C@@]2(C)CC[C@@H](O)C[C@@H]12 [OCA, obeticholic acid]",pruritus adverse event,patients with PBC,severe pruritus has been reported
